The test system of assay [1] is Myzus persicae. Kind of assay: B2: Myzus persicae (green peach aphid), mixed population, feeding/residual contact activity, preventive. In kind it is in vivo. The settings on record: foliar, 144 h, sunflower leaf discs sprayed with 200 ppm, 6 days incubation, read-out: control of Myzus persicae (mortality). As for the experimental part: B2: Myzus persicae (green peach aphid) (mixed population, feeding/residual contact activity, preventive)
Sunflower leaf discs were placed on agar in a 24-well microtiter plate and sprayed with test solutions of 200 ppm. After drying, the leaf discs were infested with an aphid population of mixed ages. After an incubation period of 6 days, samples were checked for mortality and special effects (e.g. phytotoxicity).

The test system of assay [2] is Myzus persicae. Kind of assay: B3: Myzus persicae (green peach aphid), mixed population, systemic/feeding activity, curative. In kind it is in vivo. The settings on record: 144 h, roots of infested pea seedlings in test solution of 24 ppm, 6 days after introduction, read-out: control of Myzus persicae (mortality). An excerpt:
B3: Myzus persicae (green peach aphid) (mixed population, systemic/feeding activity, curative)
Roots of pea seedlings, infested with an aphid population of mixed ages, were placed directly in the test solutions of 24 ppm. 6 days after introduction, samples were checked for mortality and special effects on the plant.

The text below walks through data of patent publication US8629284B2, “Chemical compounds” (Syngenta Crop Protection, LLC, priority 2008, dated 2014).

For orientation: mortality means the share of the test organisms that died. For `CCNC1=NS(=O)(=O)c2cccc(F)c21` [Compound P1.15, N-Ethyl-4-fluoro-1,2-benzisothiazol-3-amine 1,1-dioxide], in the assay on Myzus persicae [1], the mortality at 200 ppm is at least 65%. In addition, in the assay with Myzus persicae [2], the mortality at 24 ppm is at least 80%.
With `N=C1c2c(F)cccc2S(=O)(=O)N1CC1CC1` [Compound P2.3, 4-Fluoro-2-cyclopropylmethyl-1,2-benzisothiazol-3(2H)-imine 1,1-dioxide], the mortality at 24 ppm with Myzus persicae [2] was at least 80%.
